Source: ChEMBL document CHEMBL1142254, “5'-Fluoro-5'-deoxyaristeromycin” (Bioorg Med Chem Lett, 2008)
pEC50: −log10 of the molar value. Activity calls are given as the source filed them. The rule behind the calls is not given here.

Legend:
[1] = Cytotoxicity against rhesus monkey MA104 cells; assay type: cell-based, Macaca mulatta
Measles morbillivirus [2] = experiment: Antiviral activity against measles virus MO6 by neutral red assay; assay type: functional, organism-based
Punta Toro virus = experiment: Antiviral activity against Punta Toro virus; assay type: functional, organism-based
Measles morbillivirus [3] = experiment: Antiviral activity against measles virus MO6 by visual assay; assay type: functional, organism-based
West Nile virus = experiment: Antiviral activity against West Nile virus; assay type: functional, organism-based
[4] = Cytotoxicity against cat CRFK cells; assay type: cell-based, Felis catus
Sindbis virus = experiment: Antiviral activity against Sindbis virus; assay type: functional, organism-based
Vaccinia virus = experiment: Antiviral activity against vaccinia virus; assay type: functional, organism-based; conditions: Orthopoxvirus vaccinia
unidentified adenovirus = experiment: Antiviral activity against adenovirus; assay type: functional, organism-based
Cowpox virus = experiment: Antiviral activity against Cowpox virus; assay type: functional, organism-based
Enterovirus = experiment: Antiviral activity against rhinovirus; assay type: functional, organism-based
MDCK = experiment: Cytotoxicity against dog MDCK cells; assay type: cell-based, Canis lupus familiaris
HEL = experiment: Cytotoxicity against human HEL cells; assay type: cell-based
Feline coronavirus = experiment: Antiviral activity against Feline coronavirus; assay type: functional, organism-based
Hepatitis C virus = experiment: Antiviral activity against HCV; assay type: functional, organism-based; conditions: Hepacivirus hominis
Human alphaherpesvirus 1 [5] = experiment: Antiviral activity against HSV1; assay type: functional, organism-based
Vero = experiment: Cytotoxicity against african green monkey Vero cells; assay type: cell-based; conditions: chlorocebus sabaeus
[6] = tested on: Respiratory syncytial virus; experiment: Antiviral activity against RSV; assay type: functional, organism-based
HFF = experiment: Cytotoxicity against human HFF cells; assay type: cell-based
Human alphaherpesvirus 2 = experiment: Antiviral activity against HSV2; assay type: functional, organism-based
A549 = experiment: Cytotoxicity against human A549 cells; assay type: cell-based
[7] = Cytotoxicity against african green monkey CV1 cells; assay type: cell-based; conditions: chlorocebus aethiops, cv-1
HeLa = experiment: Cytotoxicity against human HeLa cells; assay type: cell-based
[8] = tested on: Mammalian orthoreovirus 1; experiment: Antiviral activity against Reovirus1; assay type: functional, organism-based
[9] = Cytotoxicity against human Huh7ET cells; assay type: cell-based; conditions: huh-7
Human respirovirus 3 = experiment: Antiviral activity against Parainfluenza 3 virus; assay type: functional, organism-based
Coxsackievirus B4 = experiment: Antiviral activity against Coxsackie virus B4; assay type: functional, organism-based
[10] = tested on: Vesicular stomatitis virus; experiment: Antiviral activity against in Vesicular stomatitis virus; assay type: functional, organism-based
Human alphaherpesvirus 1 [11] = experiment: Antiviral activity against thymidine kinase deficient HSV1; assay type: functional, organism-based

With `Nc1ncnc2c1ncn2[C@@H]1C[C@H](CF)[C@@H](O)[C@H]1O` the Activity [1] was “Non-toxic”, the pEC50 (Measles morbillivirus [2]) was 5.55 and the Activity (Punta Toro virus) was “inactive”. For the same molecule, the pEC50 (Measles morbillivirus [3]) was 4.89, the Activity (West Nile virus) was “inactive” and the Activity [4] was “Non-toxic”. The Activity (Sindbis virus) was “inactive”, the Activity (Vaccinia virus) was “inactive” and the Activity (unidentified adenovirus) was “inactive”. The Activity (Cowpox virus) was “inactive”, the Activity (Enterovirus) was “inactive” and the Activity (MDCK) was “Non-toxic”. For the same molecule, the Activity (HEL) was “Non-toxic”, the Activity (Feline coronavirus) was “inactive” and the Activity (Hepatitis C virus) was “inactive”. The Activity (Human alphaherpesvirus 1 [5]) was “inactive”, the Activity (Vero) was “Non-toxic” and the Activity [6] was “inactive”. The Activity (HFF) was “Non-toxic”, the Activity (Human alphaherpesvirus 2) was “inactive” and the Activity (A549) was “Non-toxic”. For the same molecule, the Activity [7] was “Non-toxic”, the Activity (HeLa) was “Non-toxic” and the Activity [8] was “inactive”. For the same molecule, the Activity [9] was “Non-toxic”, the Activity (Human respirovirus 3) was “inactive” and the Activity (Coxsackievirus B4) was “inactive”. The Activity [10] was “inactive” and the Activity (Human alphaherpesvirus 1 [11]) was “inactive”.
